The results in this text go back to ChEMBL document CHEMBL1146573, “Antioxidant activity of a new capsaicin derivative from Capsicum annuum” (J Nat Prod, 2003).

By IC50 is commonly meant the concentration that gives 50% inhibition.

A short description of the assay: Antioxidant activity in egg yolk liposomes assessed as inhibition of ADP/Fe(2+)-induced lipid peroxidation after 15 mins by TBARS method. Type of assay: functional.

The structures appear in SMILES notation.

With `COc1cc(CNC(=O)CCCC/C=C/C(C)C)cc(-c2cc(CNC(=O)CCCCCCC(C)C)cc(OC)c2O)c1O`, the IC50 was more than 10 µM.

Take `Cc1c(C)c2c(c(C)c1O)CC[C@@](C)(CCC[C@H](C)CCC[C@H](C)CCCC(C)C)O2` [ALPHA-TOCOPHEROL]: the IC50 worked out at 250 µM.
